# In patent US20230172940A1, “METHODS OF EXTENDING LIFESPAN BY ADMINISTERING FERROPTOSIS INHIBITORS” (COLLABORATIVE MEDICINAL DEVELOPMENT, LLC, priority 2020, published 2023):
# Counter-ions that a name gives are not always drawn.
# Experiments:
# Assay type in all cases: in vivo, Caenorhabditis elegans
# total glutathione = assay: Quantification of total glutathione; conditions: for glutathione depletion induced by DEM: Day 4 animals; for age-dependent decrease in glutathione: treated from L4, assayed on Day 4 of adult life
# Method: Measurement of total glutathione was based on established protocols and is based on a kinetic spectrophotometric assay using the reaction between GSH and 5^o5′-dithio-bis (2-nitrobenzoic acid) (DTNB) measured at 412 nm (Caito and Aschner^o 2015; Rahman et al.^o 2006). All reagents were freshly prepared prior to the assay and for each estimate 50 adults were collected in 200 μL of S-basal (Brenner^o 1974) in 1.7 ml microfuge tubes. Animals were washed twice in S-basal^o pelleted via centrifugation and total volume reduced to 20 μL. A 50 μL aliquot of Extraction Buffer was added then the samples were frozen in Liquid N2 and store at −80° C. until required. Extraction buffer consisted of 6 mg/mL 5-sulfosalicylic acid dehydrate^o 0.1% v/v Triton X-100 and Complete^o EDTA-free Proteinase inhibitor cocktail (Roche) in KPE buffer (0.1 M potassium phosphate buffer and 5 mM EDTA at pH 7.5).
# Samples were homogenized with a Bioruptor Next Gen (Diagenode) bath sonicator^o set on HIGH and cooled to 4° C.^o using 10 cycles of 10 seconds ON and 10 seconds OFF. Supernatant was collected following a 14K×g spin at 4° C. Assays were performed in 96 well microplates (clear polystyrene^o flat-bottomed^o Greiner bio-one)^o in a total volume of 200 μL per well. To each well was added 50 μL of lysate supernatant^o 50 μL of milli-Q H2O and then 100 μL of GA buffer (NADPH 400 μM^o glutathione reductase 1 U/mL and 0.3 mM DTNB in KPE buffer diluent). Reactions were incubated for 1-2 min at room temperature and then absorbance measured at 412 nm for 10 min with 1 min interval using a Powerwave plate spectrophotometer (BioTek). The rate of change in absorbance per minute is linearly proportional to the total concentration of GSH. Total GSH in the samples was interpolated from using linear regression from a standard curve of known GSH concentrations (0 to 1 μM) run in tandem. In parallel^o the concentration of total protein per sample was also determined by a Bicinchoninic acid (BCA) assay (Pierce) using the manufacturers protocol. Total GSH estimates were then normalized for protein load thous accounting for any size differences between populations. Within experiment results are presented as relative glutathione levels^o where results are normalized to the mean of the starting population.
# malondialdehyde (MDA) = assay: Lipid peroxidation: malondialdehyde (TBARS assay); conditions: for aged-related increase in MDA: aging at 25° C
# Method: Measurement of malondialdehyde (MDA) was performed using a Thiobarbituric acid reactive substances (TBARS) assay kit (10009055^o Caymen Chemical) as per manufacturer instructions using reduced reaction volumes of 1 mL. For C. elegans samples with acute glutathione depletion^o Day 1 adults were treated with and without 20 mM DEM for 6 h at 25° C. prior to collection. For aging^o animals were aged at 25° C. and treated with Lip-1 or SIH as previously described. Replicate samples were collected^o washed twice in S-basal^o pelleted by centrifugation. Following removal of excess buffer samples (^˜40 μL) were frozen in liquid-N2 and stored at −80° C. until needed. Samples were then homogenized via a Bioruptor bath sonicator (Diagenode^o set on ‘high power’ with 10 cycles of 10 s pulses with a 10 s pause between pulses^o at 4° C.)^o then centrifuged at 21^o500×g at 4° C. for 30 min and the supernatant retained. The concentration of protein was determined using a BCA assay kit (Pierce) and equivalent aliquots of 20-25 μg total protein used for subsequent measurements.
# [1] = system: Fe^2+/Fe(total) in anterior intestinal cells; assay: XANES imaging of iron speciation; conditions: for age-related increase in the Fe^2+ fraction: anterior intestinal region
# Method: Adult C. elegans were removed from NGM, washed four times in excess ice-cold S-basal (0.1 M NaCl; 0.05 M KHPO4 at pH 6.0). Samples were transferred onto 0.5 μm-thick silicon nitride (Si3N4) window (Silson), excess buffer wicked away and then the slide was frozen in situ under a laminar stream of 100° K. dry nitrogen (N2) gas.
# The beam energy was selected using a Si(311) double-crystal monochromator with a resolution of ˜0.5 eV. !XANES imaging was achieved by recording Fe XRF at 106 incident energies spanning the Fe Kedge (7112 eV). Measurement energy interval was commensurate with anticipated structure in the XANES:
# As for XFM, !XANES measurements used a beam spot ^˜2×2 jim but data was recorded using continuous scanning at 0.2 mm sec^−1 (binned at 2 jim intervals). Transit time through each virtual pixel was 10 ms and the incident X-ray intensity at 7455 eV was ^˜1.67×10^10 photons s^−1. These imaging parameters gave a total dose associated with the qXANES measurement estimated at ^˜5 MGy. This value is commensurate with doses typically delivered during bulk X-ray absorption spectroscopy. qXANES Analysis
# The XANES spectra from an iron foil (50.1 jig cm^−2, Micromatter Canada) was measured to monitor the energy calibration of the beamline. The maxima of the first peak in the derivative spectra of the iron foil was subsequently defined as 7112.0 eV. The energy stability of beamline has been determined at <0.25 eV over 24 hrs making energy drift over the course of a scan negligible. Consistency of the measured edge positions in conjunction with stability of beam position and flux recorded in ion chambers upstream the specimen position provide confidence that energy stability was high through the duration of the experiment. Small position drifts were aligned by cross-correlation of the calcium map which remains essentially constant throughout the energy series.
# The aligned qXANES image series is stack of images, one per incident energy allowing the XANES of individual cells to be assessed. Previous work has shown that the distribution of calcium is a useful marker for the position of C. elegans intestinal cells, and we used this information to identify regions of interest in the qXANES stack corresponding to anterior intestinal cells. Anterior intestinal cells were chosen due to their consistent and robust iron content.
# As all points on the specimen represent a heterogenous mixture of iron binding species the resulting XANES spectra are admixtures with contributions from all of these components. The technical particulars of the XFM beamline (being primarily designed for elemental mapping) are not optimized for high resolution spectroscopy and our XANES spectra are relatively sparse. For iron K-edge XANES the abrupt increase in absorption coefficient at the critical threshold obscures the presence of […] and 1s→4p electronic transitions. It has been shown that the relative intensity of these transitions provides the proportional contribution of Fe^2+ and Fe^3+ to the XANES and can be assessed by interrogating the first derivative of the XANES spectra.
# [2] = TJ1060, Day 8, anterior intestinal cells
# [3] = aged animals under intervention
SMILES,"depletion of glutathione (total glutathione; 10 mM DEM, 24-hour exposure, 4-day old adult worms)","relative amounts of MDA (malondialdehyde (MDA); acute glutathione depletion by DEM exposure (20 mM, 6 h, Day 1 adults))","Fe^2+ fraction of the total iron ([1]; 4 day old wild type worms, lethal glutathione depletion by DEM)","Mean Fe^2+/Fe(total) ([1]; N2, Day 4 + DEM)",Fe^2+/Fe(total) ([1]; wild type (N2) animals treated with DEM),glutathione depletion induced by DEM (total glutathione),age-dependent decrease in glutathione (total glutathione),aged-related increase in MDA (malondialdehyde (MDA)),"Mean Fe^2+/Fe(total) [1, 2]","Fe^2+ fraction of the total iron [1, 3]",age-related increase in the Fe^2+ fraction [1]
"CCOC(=O)/C=C\C(=O)OCC [DEM, Diethyl maleate]",≈ 50%,marked increase,about 0.3,0.310,markedly increased,,,,,,
"O=C(N/N=C/c1ccccc1O)c1ccncc1 [SIH, Salicylaldehyde isonicotinoyl hydrazone]",,,,,,mitigated the glutathione depletion induced by DEM,prevented the age-dependent decrease in glutathione,ameliorated,0.236,≈ 0.2,normalized to that of a young animal
"Clc1cccc(CNC2=Nc3ccccc3NC23CCNCC3)c1 [Lip-1, N-[(3-chlorophenyl)methyl]-spiro[piperidine-4,2′(1′H)-quinoxalin]-3′-amine]",,,,,,did not prevent the fall in glutathione,did not prevent the fall in glutathione,ameliorated,0.231,≈ 0.2,normalized to that of a young animal
